Test results from patent publication US9617310B2 (priority 2013, dated 2017).
pEC50: −log10 of the molar value.

Key:
Assay type in all cases: cell-based
[1] = tested on: genotype 1b stable HCV replicon (Con1) in Huh-7-derived cells; assay: Stable subgenomic HCV replicon, genotype 1b, Renilla luciferase; conditions: Hepatitis C virus, stable replicon genotype 1b, 72 h, read-out: EC50 1B RLUC
Method: Antiviral potency (EC50) was determined in both stable subgenomic HCV replicon cell lines and transient-transfected HCV replicon cells. The term half maximal effective concentration (EC50) refers to the concentration of a drug which induces a response halfway between the baseline and maximum after the exposure time specified below.
Stable subgenomic HCV replicons for genotype 1a, 1b, 2a, 3a, and 4a were established in Huh-7-derived cells as described by Lohmann et al (Lohmann V, Korner F, Koch J, et al Replication of subgenomic hepatitis C virus RNAs in a hepatoma cell line. Science 1999; 285:119-3). Each stable cell line contains a bicistronic HCV replicon that encodes a humanized Renilla luciferase (hRLuc) reporter gene fused to a selectable neomycin-resistance gene, followed by an EMCV IRES and the NS3-NS5B coding region of HCV. […] Luciferase activity was measured as a marker for intracellular HCV replication levels.
The genotype 1a stable replicon was derived from the H77 HCV strain and contained adaptive mutations P1496L and S2204I. The genotype 1b stable replicon was derived from the Con1 HCV strain and contained adaptive mutations E1202G, T1280I, and K1846T. […] The genotype 3a stable replicon was derived from the S52 HCV strain and contained adaptive mutations P1121 L, A1198T and S2210I (equivalent to S2204I in genotype 1). The genotype 4a stable replicon was derived from the ED43 HCV strain and contained adaptive mutations Q1691R and S2204I. All replicon cell lines were propagated in Huh-7-derived cells and maintained in Dulbecco's modified Eagle's Medium (DMEM) supplemented with 10% fetal bovine serum (FBS) and 0.5 mg/ml G418.
To perform EC50 assays, cells from each HCV replicon were dispensed into 384-well plates. Compounds were dissolved in DMSO at a concentration of 10 mM and diluted in DMSO using an automated pipetting instrument. Three-fold serially diluted compounds were directly added to the cells using an automated instrument. DMSO was used as a negative (solvent; no inhibition) control, and a combination of three HCV inhibitors including a protease inhibitor; an NS5A inhibitor and a nucleoside inhibitor was used at concentrations >100×EC50 as a positive control (100% inhibition). Seventy-two hours later, cells were lysed and Renilla luciferase activity were quantified as recommended by the manufacturer (Promega-Madison, Wis.). Non-linear regression was performed to calculate […], values.

[2] = tested on: genotype 3a transient HCV replicon (S52) in Huh-7-derived cells; assay: Transient-transfected HCV replicon, genotype 3a wild type; conditions: Hepatitis C virus; transient-transfected replicon genotype 3a wild type, 72 h; read-out: EC50 3A WT
[3] = tested on: genotype 1a (H77) wild-type transient HCV replicon in Huh-7-derived cells; assay: Transient-transfected HCV replicon, genotype 1a wild type; conditions: Hepatitis C virus; transient-transfected replicon genotype 1a wild type, 72 h; read-out: EC50 1A WT
[4] = tested on: NS3/4a protease inhibitor resistant variant R155K in genotype 1a transient HCV replicon; assay: Transient-transfected HCV replicon, genotype 1a R155K; conditions: Hepatitis C virus, 72 h, read-out: EC50 1A R155K
[5] = tested on: genotype 1b wild-type transient HCV replicon in Huh-7-derived cells; assay: Transient-transfected HCV replicon, genotype 1b wild type; conditions: Hepatitis C virus; transient-transfected replicon genotype 1b wild type, 72 h; read-out: EC50 1B WT
[6] = tested on: NS3/4a protease inhibitor resistant variant D168A in genotype 1b transient HCV replicon; assay: Transient-transfected HCV replicon, genotype 1b D168A; conditions: Hepatitis C virus, 72 h, read-out: EC50 1B D168A

SMILES	pEC50 [1]	pEC50 [2]	pEC50 [3]	pEC50 [4]	pEC50 [5]	pEC50 [6]
CC(C)(C)[C@@H]1NC(=O)O[C@@H]2C[C@@H]3C[C@@H]3[C@H]2CCCCCc2nc3ccc4ccccc4c3nc2OC2C[C@@H](C(=O)N[C@]3(C(=O)NS(=O)(=O)C4(C)CC4)C[C@H]3C(F)F)N(C2)C1=O (stereo partly drawn) [Example 22, (33R,35S,91S,93R,94R,95S,5S)-5-(tert-butyl)-N-((1R,2R)-2-(difluoromethyl)-1-(((1-methylcyclopropyl)sulfonyl)carbamoyl)cyclopropyl)-4,7-dioxo-2,8-dioxa-6-aza-1(2,3)-benzo[f]quinoxalina-3(3,1)-pyrrolidina-9(3,4)-bicyclo[3.1.0]hexanacyclotetradecaphane-35-carboxamide]	8.30	8.26	8.77	8.57	8.70	7.74
CC(C)(C)[C@@H]1NC(=O)O[C@@H]2C[C@@H]3C[C@@H]3[C@H]2CCCCCc2nc3ccc(C#N)cc3nc2O[C@@H]2C[C@@H](C(=O)N[C@]3(C(=O)NS(=O)(=O)C4(C)CC4)C[C@H]3C(F)F)N(C2)C1=O [Example 23, (33R,35S,91S,93R,94R,95S,5S)-5-(tert-butyl)-17-cyano-N-((1R,2R)-2-(difluoromethyl)-1-(((1-methylcyclopropyl)sulfonyl)carbamoyl)cyclopropyl)-4,7-dioxo-2,8-dioxa-6-aza-1(2,3)-quinoxalina-3(3,1)-pyrrolidina-9(3,4)-bicyclo[3.1.0]hexanacyclotetradecaphane-35-carboxamide]	8.53	8.02	8.92	8.64	9.05	7.96
CC(C)(C)[C@@H]1NC(=O)O[C@@H]2C[C@@H]3C[C@@H]3[C@H]2CCCCCn2c(nc3ccccc3c2=O)O[C@@H]2C[C@@H](C(=O)N[C@]3(C(=O)NS(=O)(=O)C4(C)CC4)C[C@H]3C(F)F)N(C2)C1=O [Example 24, (1aS,2aR,6S,9S,11R,24aR,24bS)-6-tert-butyl-N-[(1R,2R)-2-(difluoromethyl)-1-{[(1-methylcyclopropyl)sulfonyl]carbamoyl}cyclopropyl]-4,7,18-trioxo-1a,2,2a,4,5,6,7,10,11,20,21,22,23,24,24a,24b-hexadecahydro-1H,9H,18H-8,11-methanocyclopropa[4′,5′]cyclopenta[1′,2′:18,19][1,10,3,6,12]dioxatriazacyclonona decino[11,12-b]quinazoline-9-carboxamide]	8.52	8.12	8.77	8.82	9.10	8.48
CC(C)(C)[C@@H]1NC(=O)O[C@@H]2C[C@@H]3C[C@@H]3[C@H]2CCCCCn2c(nc3cc(C#N)ccc3c2=O)O[C@@H]2C[C@@H](C(=O)N[C@]3(C(=O)NS(=O)(=O)C4(C)CC4)C[C@H]3C(F)F)N(C2)C1=O [Example 25, (1aS,2aR,6S,9S,11R,24aR,24bS)-6-tert-butyl-15-cyano-N-[(1R,2R)-2-(difluoromethyl)-1-{[(1-methylcyclopropyl)sulfonyl]carbamoyl}cyclopropyl]-4,7,18-trioxo-1a,2,2a,4,5,6,7,10,11,20,21,22,23,24,24a,24b-hexadecahydro-1H,9H,18H-8,11-methanocyclopropa[4′,5′]cyclopenta[1′,2′:18,19][1,10,3,6,12]dioxatriazacyclonona decino[11,12-b]quinazoline-9-carboxamide]	8.56	8.12	8.74	8.70	9.15	8.36
COc1ccc2c(=O)n3c(nc2c1)O[C@@H]1C[C@@H](C(=O)N[C@]2(C(=O)NS(=O)(=O)C4(C)CC4)C[C@H]2C(F)F)N(C1)C(=O)[C@H](C(C)(C)C)NC(=O)O[C@@H]1C[C@@H]2C[C@@H]2[C@H]1CCCCC3 [Example 26, (1aS,2aR,6S,9S,11R,24aR,24bS)-6-tert-butyl-N-[(1R,2R)-2-(difluoromethyl)-1-{[(1-methylcyclopropyl)sulfonyl]carbamoyl}cyclopropyl]-15-methoxy-4,7,18-trioxo-1a,2,2a,4,5,6,7,10,11,20,21,22,23,24,24a,24b-hexadecahydro-1H,9H,18H-8,11-methanocyclopropa[4′,5′]cyclopenta[1′,2′:18,19][1,10,3,6,12]dioxatriazacyclonona decino[11,12-b]quinazoline-9-carboxamide]	8.74	8.35	9.10	9.00	9.40	9.05
